# According to article PMC9851200, “Multiparameter phenotypic screening for endogenous TFEB and TFE3 translocation identifies novel chemical series modulating lysosome function” (Autophagy, 2022):
# Like-named read-outs stand apart in the source and are kept apart here.
# How the values were obtained:
# Format in all cases: binding
# [1] = molecular target: T1, kinases (KINOMEscan panel) (Homo sapiens, UniProt Q9UBE8); details: NLK; NEW KINOMEscan
# T1 sequence (Q9UBE8 1-527): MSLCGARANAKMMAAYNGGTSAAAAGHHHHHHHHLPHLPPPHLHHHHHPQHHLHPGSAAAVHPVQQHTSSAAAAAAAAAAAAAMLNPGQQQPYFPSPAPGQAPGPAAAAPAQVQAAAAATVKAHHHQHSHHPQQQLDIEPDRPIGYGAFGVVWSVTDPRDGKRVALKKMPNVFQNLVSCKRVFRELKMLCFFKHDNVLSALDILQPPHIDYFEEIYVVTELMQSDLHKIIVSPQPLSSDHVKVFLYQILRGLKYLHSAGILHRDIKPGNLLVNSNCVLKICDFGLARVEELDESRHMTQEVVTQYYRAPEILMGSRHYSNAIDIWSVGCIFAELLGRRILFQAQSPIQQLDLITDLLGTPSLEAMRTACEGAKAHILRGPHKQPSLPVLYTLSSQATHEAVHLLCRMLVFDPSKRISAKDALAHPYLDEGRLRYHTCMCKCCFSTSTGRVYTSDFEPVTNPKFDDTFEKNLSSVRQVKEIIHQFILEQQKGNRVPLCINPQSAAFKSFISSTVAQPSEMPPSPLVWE
# [2] = molecular target: kinases (KINOMEscan panel) (Homo sapiens, UniProt P80192); details: NEW KINOMEscan
# [3] = molecular target: kinases (KINOMEscan panel) (Homo sapiens, UniProt P37023); details: ACVRL1; NEW KINOMEscan
# Chain of kinases (KINOMEscan panel) (Homo sapiens, UniProt P37023) (P37023 22-503): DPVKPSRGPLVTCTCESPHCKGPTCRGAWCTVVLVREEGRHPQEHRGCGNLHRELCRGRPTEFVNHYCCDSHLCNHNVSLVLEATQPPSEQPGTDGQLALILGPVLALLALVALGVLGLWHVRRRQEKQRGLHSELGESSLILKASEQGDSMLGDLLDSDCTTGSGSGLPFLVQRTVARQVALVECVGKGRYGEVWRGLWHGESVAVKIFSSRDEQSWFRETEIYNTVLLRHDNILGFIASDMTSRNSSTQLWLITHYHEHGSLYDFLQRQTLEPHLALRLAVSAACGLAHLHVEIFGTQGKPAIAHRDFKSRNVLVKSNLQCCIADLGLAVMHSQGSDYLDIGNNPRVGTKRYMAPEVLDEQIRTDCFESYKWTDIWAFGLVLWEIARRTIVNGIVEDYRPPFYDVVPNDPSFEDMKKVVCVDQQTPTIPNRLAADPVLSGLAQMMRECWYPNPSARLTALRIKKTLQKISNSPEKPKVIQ
# [4] = molecular target: kinases (KINOMEscan panel) (Homo sapiens, UniProt Q9UM73, L1196M); details: kinase ALK(L1196M); NEW KINOMEscan
# Chain of kinases (KINOMEscan panel) (Homo sapiens, UniProt Q9UM73, L1196M) (Q9UM73 19-1620 L1196M): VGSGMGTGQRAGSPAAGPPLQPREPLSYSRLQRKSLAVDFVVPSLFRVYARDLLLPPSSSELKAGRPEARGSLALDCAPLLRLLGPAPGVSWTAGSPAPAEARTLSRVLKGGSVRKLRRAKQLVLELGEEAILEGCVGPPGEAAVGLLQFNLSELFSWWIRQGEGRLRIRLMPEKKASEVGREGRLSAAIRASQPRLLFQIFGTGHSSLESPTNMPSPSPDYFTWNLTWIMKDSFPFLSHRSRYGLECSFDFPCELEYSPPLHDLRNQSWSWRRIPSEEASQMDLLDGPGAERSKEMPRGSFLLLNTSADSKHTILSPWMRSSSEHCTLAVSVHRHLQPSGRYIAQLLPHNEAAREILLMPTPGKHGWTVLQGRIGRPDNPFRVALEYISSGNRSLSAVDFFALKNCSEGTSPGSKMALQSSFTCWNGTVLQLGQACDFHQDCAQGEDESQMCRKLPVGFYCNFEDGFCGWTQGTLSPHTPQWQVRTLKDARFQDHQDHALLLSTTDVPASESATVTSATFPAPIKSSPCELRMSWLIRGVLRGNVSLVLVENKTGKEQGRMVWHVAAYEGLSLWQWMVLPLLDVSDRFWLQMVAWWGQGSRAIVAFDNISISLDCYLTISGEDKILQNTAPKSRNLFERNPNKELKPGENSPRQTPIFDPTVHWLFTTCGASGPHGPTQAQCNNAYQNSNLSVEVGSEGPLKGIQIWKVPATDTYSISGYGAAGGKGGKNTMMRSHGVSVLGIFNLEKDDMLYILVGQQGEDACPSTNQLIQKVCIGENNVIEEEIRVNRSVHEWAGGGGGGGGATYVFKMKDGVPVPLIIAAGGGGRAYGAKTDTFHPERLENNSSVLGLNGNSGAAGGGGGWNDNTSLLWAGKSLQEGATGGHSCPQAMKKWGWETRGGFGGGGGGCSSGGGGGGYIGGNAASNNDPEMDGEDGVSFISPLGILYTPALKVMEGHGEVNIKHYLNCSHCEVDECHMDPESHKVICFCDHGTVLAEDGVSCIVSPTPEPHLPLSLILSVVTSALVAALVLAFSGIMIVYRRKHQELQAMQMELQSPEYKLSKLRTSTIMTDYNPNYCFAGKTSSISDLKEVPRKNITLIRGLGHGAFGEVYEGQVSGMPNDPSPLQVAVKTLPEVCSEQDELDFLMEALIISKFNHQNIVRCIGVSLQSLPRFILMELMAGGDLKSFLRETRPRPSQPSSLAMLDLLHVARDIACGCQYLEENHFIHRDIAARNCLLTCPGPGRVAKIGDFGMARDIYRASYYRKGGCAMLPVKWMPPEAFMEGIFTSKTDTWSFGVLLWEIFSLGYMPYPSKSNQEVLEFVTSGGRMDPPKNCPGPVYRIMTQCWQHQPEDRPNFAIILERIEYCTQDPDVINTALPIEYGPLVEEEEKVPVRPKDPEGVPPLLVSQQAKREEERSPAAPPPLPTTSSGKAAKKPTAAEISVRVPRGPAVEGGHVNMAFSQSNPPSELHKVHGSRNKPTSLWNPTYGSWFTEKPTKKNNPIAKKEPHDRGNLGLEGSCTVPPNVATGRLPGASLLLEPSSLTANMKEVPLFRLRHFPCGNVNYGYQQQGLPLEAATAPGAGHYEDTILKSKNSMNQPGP
# [5] = molecular target: kinases (KINOMEscan panel) (Homo sapiens, UniProt P17612); details: kinase PRKACA; NEW KINOMEscan
# [6] = molecular target: kinases (KINOMEscan panel) (Plasmodium falciparum, UniProt P61075); details: PFPK5(P.falciparum); NEW KINOMEscan
# Chain of kinases (KINOMEscan panel) (Plasmodium falciparum, UniProt P61075) (P61075 whole entry): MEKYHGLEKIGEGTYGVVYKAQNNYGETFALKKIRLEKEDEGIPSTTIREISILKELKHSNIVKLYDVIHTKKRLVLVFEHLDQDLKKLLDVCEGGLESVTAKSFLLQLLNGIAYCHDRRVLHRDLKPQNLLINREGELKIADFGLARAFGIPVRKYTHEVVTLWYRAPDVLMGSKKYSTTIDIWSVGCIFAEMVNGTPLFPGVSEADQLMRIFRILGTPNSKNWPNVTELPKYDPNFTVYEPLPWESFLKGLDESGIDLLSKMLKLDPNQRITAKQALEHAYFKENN
# [7] = molecular target: kinases (KINOMEscan panel) (Homo sapiens, UniProt Q52WX2); details: SBK1; NEW KINOMEscan
# Chain of kinases (KINOMEscan panel) (Homo sapiens, UniProt Q52WX2) (Q52WX2 whole entry): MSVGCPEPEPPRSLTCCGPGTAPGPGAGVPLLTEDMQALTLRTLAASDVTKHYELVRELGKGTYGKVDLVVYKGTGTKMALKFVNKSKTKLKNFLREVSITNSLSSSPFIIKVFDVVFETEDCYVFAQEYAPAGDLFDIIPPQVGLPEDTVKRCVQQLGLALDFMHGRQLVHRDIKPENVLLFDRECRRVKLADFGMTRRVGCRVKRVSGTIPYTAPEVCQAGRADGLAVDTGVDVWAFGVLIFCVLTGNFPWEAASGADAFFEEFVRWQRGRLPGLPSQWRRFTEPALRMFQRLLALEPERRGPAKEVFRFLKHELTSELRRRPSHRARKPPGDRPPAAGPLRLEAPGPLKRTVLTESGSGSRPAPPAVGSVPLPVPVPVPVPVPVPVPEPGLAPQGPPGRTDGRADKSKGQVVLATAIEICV
# [8] = molecular target: kinases (KINOMEscan panel) (Homo sapiens, UniProt P08922); details: kinase ROS1; NEW KINOMEscan
# [9] = molecular target: kinases (KINOMEscan panel) (Homo sapiens, UniProt P11802); details: NEW KINOMEscan; for KINOMEscan CDK4-cyclinD3: kinase CDK4-cyclinD3; for KINOMEscan CDK4: kinase CDK4
# Chain of kinases (KINOMEscan panel) (Homo sapiens, UniProt P11802) (P11802 whole entry): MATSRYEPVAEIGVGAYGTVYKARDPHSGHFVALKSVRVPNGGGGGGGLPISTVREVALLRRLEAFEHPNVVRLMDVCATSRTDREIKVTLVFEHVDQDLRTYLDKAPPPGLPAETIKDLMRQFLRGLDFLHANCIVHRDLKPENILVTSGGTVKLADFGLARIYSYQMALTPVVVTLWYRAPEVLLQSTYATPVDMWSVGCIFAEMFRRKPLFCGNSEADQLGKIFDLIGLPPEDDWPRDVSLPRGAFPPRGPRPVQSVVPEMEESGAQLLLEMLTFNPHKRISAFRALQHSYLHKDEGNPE
# [10] = molecular target: kinases (KINOMEscan panel) (Homo sapiens, UniProt O75716); details: kinase STK16; NEW KINOMEscan
# Chain of kinases (KINOMEscan panel) (Homo sapiens, UniProt O75716) (O75716 whole entry): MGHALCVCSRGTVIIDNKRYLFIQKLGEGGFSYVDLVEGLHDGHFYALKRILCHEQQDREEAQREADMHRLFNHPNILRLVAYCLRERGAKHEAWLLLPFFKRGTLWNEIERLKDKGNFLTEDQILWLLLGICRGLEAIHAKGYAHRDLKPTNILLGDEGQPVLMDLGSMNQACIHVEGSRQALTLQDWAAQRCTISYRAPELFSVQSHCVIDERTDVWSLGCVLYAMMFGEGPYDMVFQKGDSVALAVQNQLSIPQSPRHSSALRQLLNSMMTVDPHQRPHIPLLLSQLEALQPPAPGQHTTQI
# [11] = molecular target: kinases (KINOMEscan panel) (Homo sapiens, UniProt Q9UEW8); details: NEW KINOMEscan
# [12] = molecular target: kinases (KINOMEscan panel) (Homo sapiens, UniProt P22607, G697C); details: FGFR3(G697C); NEW KINOMEscan
# Chain of kinases (KINOMEscan panel) (Homo sapiens, UniProt P22607, G697C) (P22607 23-806 G697C): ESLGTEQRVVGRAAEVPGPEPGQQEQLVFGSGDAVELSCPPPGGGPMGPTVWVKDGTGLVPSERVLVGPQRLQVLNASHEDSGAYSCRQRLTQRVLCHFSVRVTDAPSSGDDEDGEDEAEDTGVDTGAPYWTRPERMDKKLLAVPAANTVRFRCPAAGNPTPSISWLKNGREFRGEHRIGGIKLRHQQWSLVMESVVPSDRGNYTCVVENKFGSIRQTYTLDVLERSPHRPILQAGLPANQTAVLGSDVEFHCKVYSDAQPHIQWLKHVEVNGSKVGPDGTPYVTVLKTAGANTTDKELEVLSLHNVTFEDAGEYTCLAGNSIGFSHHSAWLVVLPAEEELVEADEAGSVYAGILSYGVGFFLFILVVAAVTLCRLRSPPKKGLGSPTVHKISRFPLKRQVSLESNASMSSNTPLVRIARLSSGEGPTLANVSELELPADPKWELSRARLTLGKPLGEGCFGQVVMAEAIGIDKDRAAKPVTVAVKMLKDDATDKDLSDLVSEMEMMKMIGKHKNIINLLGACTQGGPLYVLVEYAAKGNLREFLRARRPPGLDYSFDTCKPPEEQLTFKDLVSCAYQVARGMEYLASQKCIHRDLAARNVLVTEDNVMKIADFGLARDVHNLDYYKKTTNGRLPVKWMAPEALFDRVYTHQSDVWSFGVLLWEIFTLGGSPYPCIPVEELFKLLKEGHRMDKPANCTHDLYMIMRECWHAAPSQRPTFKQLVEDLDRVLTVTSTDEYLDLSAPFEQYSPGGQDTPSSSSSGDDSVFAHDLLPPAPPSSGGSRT
# [13] = molecular target: T2, kinases (KINOMEscan panel) (Homo sapiens, UniProt O14757); details: CHEK1; NEW KINOMEscan
# T2 sequence (O14757 1-476): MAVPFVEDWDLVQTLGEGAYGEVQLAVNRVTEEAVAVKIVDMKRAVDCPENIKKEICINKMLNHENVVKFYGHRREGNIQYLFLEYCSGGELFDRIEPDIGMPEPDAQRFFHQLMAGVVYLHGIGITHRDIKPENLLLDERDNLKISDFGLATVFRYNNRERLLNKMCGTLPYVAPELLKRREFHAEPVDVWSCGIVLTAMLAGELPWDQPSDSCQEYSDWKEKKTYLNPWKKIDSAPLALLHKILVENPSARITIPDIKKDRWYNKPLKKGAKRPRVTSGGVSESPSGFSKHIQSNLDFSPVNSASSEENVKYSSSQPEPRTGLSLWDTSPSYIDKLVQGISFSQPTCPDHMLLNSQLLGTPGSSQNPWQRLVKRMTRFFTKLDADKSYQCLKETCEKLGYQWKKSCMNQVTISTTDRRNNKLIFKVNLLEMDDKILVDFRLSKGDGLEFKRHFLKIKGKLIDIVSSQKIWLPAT
# [14] = molecular target: kinases (KINOMEscan panel) (Homo sapiens, UniProt O96017); details: kinase CHEK2; NEW KINOMEscan
# Chain of kinases (KINOMEscan panel) (Homo sapiens, UniProt O96017) (O96017 whole entry): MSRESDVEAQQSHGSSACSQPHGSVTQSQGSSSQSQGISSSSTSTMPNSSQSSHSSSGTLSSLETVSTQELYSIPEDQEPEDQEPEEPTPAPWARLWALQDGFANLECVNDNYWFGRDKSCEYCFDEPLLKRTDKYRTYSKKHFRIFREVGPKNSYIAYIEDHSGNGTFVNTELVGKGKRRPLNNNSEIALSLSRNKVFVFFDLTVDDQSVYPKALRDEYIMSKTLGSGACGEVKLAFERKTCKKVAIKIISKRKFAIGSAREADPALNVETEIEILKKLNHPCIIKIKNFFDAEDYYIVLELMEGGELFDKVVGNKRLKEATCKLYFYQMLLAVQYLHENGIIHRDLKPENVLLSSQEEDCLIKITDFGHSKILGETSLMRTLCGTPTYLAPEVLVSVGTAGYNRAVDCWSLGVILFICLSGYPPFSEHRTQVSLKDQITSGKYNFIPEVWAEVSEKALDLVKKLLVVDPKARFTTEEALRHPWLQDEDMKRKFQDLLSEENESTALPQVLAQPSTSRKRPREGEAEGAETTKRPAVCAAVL
# [15] = molecular target: kinases (KINOMEscan panel) (Homo sapiens, UniProt P17948); details: kinase FLT1; NEW KINOMEscan
# [16] = system: kinases (KINOMEscan panel); details: NEW KINOMEscan; for KINOMEscan EGFR(L747-E749del, A750P): kinase EGFR(L747-E749del, A750P); for KINOMEscan EGFR(L747-T751del,Sins): kinase EGFR(L747-T751del,Sins); for KINOMEscan FLT3(ITD): kinase FLT3(ITD)
# [17] = molecular target: kinases (KINOMEscan panel) (Homo sapiens, UniProt P00519, Y253F); details: kinase ABL1(Y253F)-phosphorylated; NEW KINOMEscan
Structure (SMILES),KINOMEscan NLK [1],KINOMEscan MAP3K9 [2],KINOMEscan ACVRL1 [3],KINOMEscan ALK(L1196M) [4],KINOMEscan PRKACA [5],KINOMEscan PFPK5(P.falciparum) [6],KINOMEscan SBK1 [7],KINOMEscan ROS1 [8],KINOMEscan CDK4-cyclinD1 (???) CCND1 [9],KINOMEscan CDK4-cyclinD3 [9],KINOMEscan CDK4 [9],KINOMEscan STK16 [10],KINOMEscan STK39 [11],KINOMEscan FGFR3(G697C) [12],KINOMEscan CHEK1 [13],KINOMEscan CHEK2 [14],KINOMEscan FLT1 [15],"KINOMEscan EGFR(L747-S752del, P753S) [16]","KINOMEscan FLT3(ITD,D835V) [16]","KINOMEscan FLT3(ITD,F691L) [16]",other results
Cc1cccc(-c2nc(Nc3ccc4nn(C)cc4c3)c3ccccc3n2)n1 [NK167],0,11,4,0,12,0,0,0,10,0,0,19,11,6,2,0,4,0,7,33,"KINOMEscan PRKAA2 [16]: 11; KINOMEscan EGFR(L747-E749del, A750P) [16]: 0; KINOMEscan EGFR(L747-T751del,Sins) [16]: 0; KINOMEscan FLT3(ITD) [16]: 0; KINOMEscan PRKAA2 ([16]; kinase PRKAA2): 0; KINOMEscan ABL1(Y253F)-phosphorylated [17]: 0"
Cc1cccc(-c2nc(N(C)c3ccc4ncsc4c3)c3ccccc3n2)n1 [NK-161],0,27,9,0,17,0,0,0,18,0,0,15,0,0,3,0,12,19,25,25,"KINOMEscan PRKAA2 [16]: 20; KINOMEscan EGFR(L747-E749del, A750P) [16]: 0; KINOMEscan EGFR(L747-T751del,Sins) [16]: 0; KINOMEscan FLT3(ITD) [16]: 4; KINOMEscan PRKAA2 ([16]; kinase PRKAA2): 0; KINOMEscan ABL1(Y253F)-phosphorylated [17]: 0"
